Assay results taken from paper PMC8391421, “Identification of Novel Positive Allosteric Modulators of Neurotrophin Receptors for the Treatment of Cognitive Dysfunction” (Cells, 2021).

Columns and labels:
[1] = system: Shaffer collaterals-CA1 pathway, hippocampal slices; test: Facilitation of long-term potentiation in rat hippocampal slices; details: 20 µM added 15 min before Ø burst stimulation; n = 7 slices from 5 rats
Description: Male Sprague Dawley rats (4–5 weeks old) from Charles River Laboratories, Sulzfeld, Germany, were used in these experiments. Rats were deeply anesthetized using isoflurane and decapitated soon after the disappearance of the corneal reflexes. The brains were removed and placed in ice-cold standard artificial CSF (aCSF) solution (124 mM NaCl, 30 mM NaHCO3, 10 mM glucose, 1.25 mM NaH2PO4, 3.5 mM KCl, 1 mM MgCl2, 2 mM CaCl2). Hippocampal horizontal sections (400 µm thick) were prepared using a Leica VT1200S vibratome (Leica Microsystems, Kista, Sweden). Immediately after slicing, sections were transferred into an interface incubation chamber filled with standard aCSF. The chamber was held at 34 °C during the slicing period and was subsequently allowed to cool down to room temperature. […] The facilitation of long-term potentiation (LTP) was monitored in the Shaffer collaterals (SC)-CA1 pathway in the hippocampus. […] Data were normalized with respect to the mean fEPSP slope recorded during the last 10 min of the baseline period.
It has been well-described that the transient, short-term plasticity of synaptic strength induced by a weak stimulation in hippocampal slices can turn into long-term potentiation (LTP) through the exogenous application of BDNF [71, 72, 73]. […] In the control slices, the recorded potentiation decreased to the baseline level after 60 min. […]

full-length TrkA-HA = target: T1, full-length TrkA-HA (Homo sapiens, UniProt P04629); test: Kinase activity assay of immunoprecipitated HA-tagged full length TrkA (LANCE TR-FRET); type: biochemical; details: 5 µM compound, increasing ATP, vs DMSO
T1 construct: Full-length TrkA with a HA-tag (TrkA-HA) fused to the C-terminus; A6 used the anti-HA immunoprecipitate and A14 the 12,000 x g lysate supernatant
Description: A cDNA expression plasmid (pCMV3) with C-terminal-HA tagged human NTRK1 cDNA subcloned between the HindIII and XbaI sites was obtained from SinoBiological (NordicBiosite, Sweden). The human neuroblastoma cell line SH-SY5Y (ATCC, LGC Standards GmbH, Wesel, Germany) was transfected with lipofectamine 3000 and 2 µg of the plasmid. Hygromycin was used for the selection, and expansion of the TrkA-positive clones were performed using 200 µg/mL of Hygromycin. A clone with stable TrkA–HA expression was used for protein expression. Briefly, SH-SY5Y-TrkA-HA cells were seeded in T175cm2 flasks and grown until confluency. A total of 10 flasks were used for each experiment. Cells were detached using Accutase and washed twice with Dulbecco’s PBS through centrifugation. The final cell pellet was resuspended in 2 mL lysis buffer (FNN0011, Thermo Fisher Scientific, Gothenburg, Sweden) supplemented with protease and phosphatase inhibitors and 1 mM DTT. The cell suspension was sonicated with a probe sonicator at 40% amplitude for 2 × 5 s. The resulting homogenate was centrifuged for 10 min at 12,000× g. […] TR-FRET was measured using an excitation wavelength of 340 nm and an emission wavelength of 665 nm with an iD5 plate reader (Molecular Devices, Berkshire, RG41 5TS UK). […]

T1 sequence (P04629 33-796): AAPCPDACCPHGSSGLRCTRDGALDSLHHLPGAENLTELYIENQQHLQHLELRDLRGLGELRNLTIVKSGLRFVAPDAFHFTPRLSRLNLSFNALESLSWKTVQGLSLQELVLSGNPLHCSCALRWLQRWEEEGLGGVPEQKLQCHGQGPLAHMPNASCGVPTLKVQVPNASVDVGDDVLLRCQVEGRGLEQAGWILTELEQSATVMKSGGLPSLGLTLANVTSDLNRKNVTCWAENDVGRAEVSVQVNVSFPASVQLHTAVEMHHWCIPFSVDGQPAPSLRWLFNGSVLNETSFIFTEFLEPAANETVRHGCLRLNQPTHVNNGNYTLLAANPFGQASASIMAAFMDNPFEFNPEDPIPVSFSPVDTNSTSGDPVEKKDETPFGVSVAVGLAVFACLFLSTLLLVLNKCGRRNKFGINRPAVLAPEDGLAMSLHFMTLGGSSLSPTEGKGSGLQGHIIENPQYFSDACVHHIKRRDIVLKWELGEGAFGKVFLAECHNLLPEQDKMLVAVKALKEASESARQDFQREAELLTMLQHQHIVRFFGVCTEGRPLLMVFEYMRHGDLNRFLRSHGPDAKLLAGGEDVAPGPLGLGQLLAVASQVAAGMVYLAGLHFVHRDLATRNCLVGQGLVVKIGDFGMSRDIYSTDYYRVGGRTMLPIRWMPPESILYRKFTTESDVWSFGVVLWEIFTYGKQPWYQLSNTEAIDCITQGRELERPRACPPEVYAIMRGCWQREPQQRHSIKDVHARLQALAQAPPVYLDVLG

## Cc1cc(-n2c(=O)[nH]c(=O)n(C)c2=O)ccc1Oc1ccc(S(=O)(=O)C(F)(F)F)cc1 [ACD855, Toltrazuril-sulfone]
[1]
  long-lasting potentiation of evoked synaptic responses (fEPSP slope), fold increase: 1.21 ± 0.03 fold
full-length TrkA-HA
  effect on Vmax(app) of TrkA: significantly increase
